# Laboratory results from patent publication US10597388B2, “Pyridazinone herbicides” (FMC CORPORATION, priority 2014, dated 2020).
# Key:
# Assay in all cases: Test D controlled growth environment herbicide test, pre- and postemergence
# Type in all cases: in vivo
# [1] = tested on: barley, spring (spring barley, Hordeum vulgare)
# Outline: (§1)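 Rating is visual, 0–100 scale (100 = complete control), made against untreated plants 14–21 d after treatment in controlled growth conditions. Postemergence sprays went onto 1- to 4-leaf plants in peat medium; preemergence sprays onto silt loam after sowing; formulation included a surfactant.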
# [2] = tested on: barley, winter (winter barley, Hordeum vulgare)
# Outline: as §1
# [3] = tested on: bluegrass (annual bluegrass, Poa annua)
# Outline: as §1
# [4] = tested on: canarygrass (Phalaris minor)
# Outline: as §1
# [5] = tested on: chickweed (common chickweed, Stellaria media)
# Outline: as §1
# [6] = tested on: deadnettle (henbit deadnettle, Lamium amplexicaule)
# Outline: as §1
# [7] = tested on: field poppy (Papaver rhoeas)
# Outline: as §1
# [8] = tested on: foxtail, green (green foxtail, Setaria viridis)
# Outline: as §1
# [9] = tested on: mustard, wild (wild mustard, Sinapis arvensis)
# Outline: as §1
# [10] = tested on: radish, wild (wild radish, Raphanus raphanistrum)
# Outline: as §1
# [11] = tested on: ryegrass, Italian (Italian ryegrass, Lolium multiflorum)
# Outline: as §1
# [12] = tested on: wheat, winter (winter wheat, Triticum aestivum)
# Outline: as §1
# [13] = tested on: windgrass (Apera spica-venti)
# Outline: as §1
# [14] = Postemergence, 31 g ai/ha, scale 0 to 100 (0 no effect, 100 complete control)
# [15] = Postemergence, 125 g ai/ha, visual rating on scale 0 (no effect) to 100 (complete control), 14 to 21 d
# [16] = Postemergence, 250 g ai/ha, scale 0 to 100 (0 no effect, 100 complete control)
# [17] = Preemergence, 62 g ai/ha, scale 0 to 100 (0 no effect, 100 complete control)
# [18] = Preemergence, 125 g ai/ha, scale 0 to 100 (0 no effect, 100 complete control)
# [19] = Preemergence, 250 g ai/ha, scale 0 to 100 (0 no effect, 100 complete control)
# [20] = postemergence, 62 g ai/ha, scale 0 to 100, 0 no effect, 100 complete control
smiles,measurement,setting,value
CCC(=O)Oc1c(C)nn(C)c(=O)c1-c1c(C)sc2c(C)cc(C)cc12 [Compound 28],"Plant response rating, Barley, Spring",[1]; [14],5
same,"Plant response rating, Barley, Spring",[1]; [15],5
same,"Plant response rating, Barley, Spring",[1]; [16],10
same,"Plant response rating (scale of 0 to 100), Barley, Spring","[1]; Preemergence, 31 g ai/ha",0
same,"Plant response rating, Barley, Spring",[1]; [17],0
same,"Plant response rating, Barley, Spring",[1]; [18],0
same,"Barley, Spring plant response rating",[1]; [19],0
same,"Plant response rating, Barley, Spring",[1]; [20],5
same,"Plant response rating, Barley, Winter",[2]; [14],0
same,"Plant response rating, Barley, Winter",[2]; [15],5
same,"Plant response rating, Barley, Winter",[2]; [16],5
same,"Plant response rating (scale of 0 to 100), Barley, Winter","[2]; Preemergence, 31 g ai/ha",0
same,"Plant response rating, Barley, Winter",[2]; [17],0
same,"Plant response rating, Barley, Winter",[2]; [18],15
same,"Barley, Winter plant response rating",[2]; [19],15
same,"Plant response rating, Barley, Winter",[2]; [20],0
same,Bluegrass plant response rating,[3]; [14],20
same,"Plant response rating, Bluegrass",[3]; [15],35
same,"Plant response rating, Bluegrass",[3]; [16],50
same,"Plant response rating (scale of 0 to 100), Bluegrass","[3]; Preemergence, 31 g ai/ha",30
same,"Plant response rating, Bluegrass",[3]; [17],45
same,"Plant response rating, Bluegrass",[3]; [18],65
same,Bluegrass plant response rating,[3]; [19],75
same,"Plant response rating, Bluegrass",[3]; [20],30
same,Canarygrass plant response rating,[4]; [14],75
same,"Plant response rating, Canarygrass",[4]; [15],80
same,"Plant response rating, Canarygrass",[4]; [16],85
same,"Plant response rating (scale of 0 to 100), Canarygrass","[4]; Preemergence, 31 g ai/ha",85
same,"Plant response rating, Canarygrass",[4]; [17],85
same,"Plant response rating, Canarygrass",[4]; [18],95
same,"Plant response rating, Canarygrass",[4]; [19],95
same,"Plant response rating, Canarygrass",[4]; [20],75
same,Chickweed plant response rating,[5]; [14],100
same,"Plant response rating, Chickweed",[5]; [15],100
same,"Plant response rating, Chickweed",[5]; [16],100
same,"Plant response rating (scale of 0 to 100), Chickweed","[5]; Preemergence, 31 g ai/ha",100
same,"Plant response rating, Chickweed",[5]; [17],100
same,"Plant response rating, Chickweed",[5]; [18],100
same,"Plant response rating, Chickweed",[5]; [19],100
same,"Plant response rating, Chickweed",[5]; [20],100
same,Deadnettle plant response rating,[6]; [14],10
same,"Plant response rating, Deadnettle",[6]; [15],35
same,"Plant response rating, Deadnettle",[6]; [16],70
same,"Plant response rating (scale of 0 to 100), Deadnettle","[6]; Preemergence, 31 g ai/ha",0
same,"Plant response rating, Deadnettle",[6]; [17],0
same,"Plant response rating, Deadnettle",[6]; [18],5
same,"Plant response rating, Deadnettle",[6]; [19],5
same,"Plant response rating, Deadnettle",[6]; [20],35
same,Field Poppy plant response rating,[7]; [14],80
same,"Plant response rating, Field Poppy",[7]; [15],100
same,"Plant response rating, Field Poppy",[7]; [16],100
same,"Plant response rating (scale of 0 to 100), Field Poppy","[7]; Preemergence, 31 g ai/ha",100
same,"Plant response rating, Field Poppy",[7]; [17],95
same,"Plant response rating, Field Poppy",[7]; [18],95
same,"Plant response rating, Field Poppy",[7]; [19],100
same,"Plant response rating, Field Poppy",[7]; [20],90
same,"Foxtail, Green plant response rating",[8]; [14],65
same,"Plant response rating, Foxtail, Green",[8]; [15],85
same,"Plant response rating, Foxtail, Green",[8]; [16],90
same,"Plant response rating (scale of 0 to 100), Foxtail, Green","[8]; Preemergence, 31 g ai/ha",70
same,"Plant response rating, Foxtail, Green",[8]; [17],80
same,"Plant response rating, Foxtail, Green",[8]; [18],100
same,"Plant response rating, Foxtail, Green",[8]; [19],100
same,"Plant response rating, Foxtail, Green",[8]; [20],75
same,"Mustard, Wild plant response rating",[9]; [14],35
same,"Plant response rating, Mustard, Wild",[9]; [15],70
same,"Plant response rating, Mustard, Wild",[9]; [16],70
same,"Plant response rating (scale of 0 to 100), Mustard, Wild","[9]; Preemergence, 31 g ai/ha",10
same,"Plant response rating, Mustard, Wild",[9]; [17],15
same,"Plant response rating, Mustard, Wild",[9]; [18],30
same,"Plant response rating, Mustard, Wild",[9]; [19],55
same,"Plant response rating, Mustard, Wild",[9]; [20],45
same,"Radish, Wild plant response rating",[10]; [14],85
same,"Plant response rating, Radish, Wild",[10]; [15],85
same,"Plant response rating, Radish, Wild",[10]; [16],95
same,"Plant response rating (scale of 0 to 100), Radish, Wild","[10]; Preemergence, 31 g ai/ha",0
same,"Plant response rating, Radish, Wild",[10]; [17],0
same,"Plant response rating, Radish, Wild",[10]; [18],35
same,"Plant response rating, Radish, Wild",[10]; [19],30
same,"Plant response rating, Radish, Wild",[10]; [20],100
same,"Ryegrass, Italian plant response rating",[11]; [14],75
same,"Plant response rating, Ryegrass, Italian",[11]; [15],80
same,"Plant response rating, Ryegrass, Italian",[11]; [16],85
same,"Plant response rating (scale of 0 to 100), Ryegrass, Italian","[11]; Preemergence, 31 g ai/ha",90
same,"Plant response rating, Ryegrass, Italian",[11]; [17],95
same,"Plant response rating, Ryegrass, Italian",[11]; [18],100
same,"Plant response rating, Ryegrass, Italian",[11]; [19],100
same,"Plant response rating, Ryegrass, Italian",[11]; [20],80
same,"Wheat, Winter plant response rating",[12]; [14],5
same,"Plant response rating, Wheat, Winter",[12]; [15],5
same,"Plant response rating, Wheat, Winter",[12]; [16],15
same,"Plant response rating (scale of 0 to 100), Wheat, Winter","[12]; Preemergence, 31 g ai/ha",0
same,"Plant response rating, Wheat, Winter",[12]; [17],0
same,"Plant response rating, Wheat, Winter",[12]; [18],0
same,"Plant response rating, Wheat, Winter",[12]; [19],0
same,"Plant response rating, Wheat, Winter",[12]; [20],5
same,Windgrass plant response rating,[13]; [14],70
same,"Plant response rating, Windgrass",[13]; [15],85
same,"Plant response rating, Windgrass",[13]; [16],85
same,"Plant response rating (scale of 0 to 100), Windgrass","[13]; Preemergence, 31 g ai/ha",70
same,"Plant response rating, Windgrass",[13]; [17],75
same,"Plant response rating, Windgrass",[13]; [18],90
same,"Plant response rating, Windgrass",[13]; [19],100
same,"Plant response rating, Windgrass",[13]; [20],80
